Among the data in patent US8129398B2 (priority 2008, dated 2012) are IC50 values, retold here.

SMILES strings stand for the structures.

The experiment addresses T1, HIV-integrase (Human immunodeficiency virus type 1 group M subtype B, UniProt P12497).
T1 construct: Recombinant integrase (0.26 ng) was incubated with the beads
In words: HIV-Integrase Inhibition Activity (SPA bead integration assay with P33 labeled target DNA). The experiment is classed as biochemical. As to conditions: recombinant integrase, class symbols; read-out: in vitro activity. The method, boiled down: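 Biotinylated substrate DNA on streptavidin SPA beads loaded with recombinant integrase (90 min, 37° C), washed, then inhibitor plus 0.1 fmol P33-labeled target DNA added. Reaction stopped with 10 mM EDTA; integration measured as CPM by scintillation, giving IC50 ranks.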
Consider `O=C(NCc1ccc(F)cc1)c1nc2n(c(=O)c1O)CC1CNCC2C1` (stereo not drawn) [Example 7, 7,11-Methano-4H-pyrimido[1,2-a][1,5]diazocine-2-carboxamide, N-[(4-fluorophenyl)methyl]-6,7,8,9,10,11-hexahydro-3-hydroxy-4-oxo-], for which the IC50 was 0.01 to 0.1 µM. The result for `CN(C)C(=O)C(=O)NC12CCC(CCn3c1nc(C(=O)NCc1ccc(F)cc1)c(O)c3=O)C2` (single isomer, unassigned) [Example 413, Ethanediamide, N′-[2-[[[(4-fluorophenyl)methyl]amino]carbonyl]-7,8,9,10-tetrahydro-3-hydroxy-4-oxo-8,11-methano-4H-pyrimido[1,2-a]azocin-11(6H)-yl]-N,N-dimethyl-] reads below 0.01 µM; that for `CN(C)C(=O)C(=O)NC12COC(CCn3c1nc(C(=O)NCc1ccc(F)cc1)c(O)c3=O)C2` (stereo not drawn) [Example 218, N′-(2-((4-Fluorobenzyl)carbamoyl)-3-hydroxy-4-oxo-7,8-dihydro-4 H,6H-8,11-methanopyrimido[2,1-d][1,5]oxazocin-11(10H)-yl)-N,N-dimethylethanediamide], below 0.01 µM; that for `COc1ccc(CCNC(=O)c2nc3n(c(=O)c2O)CC2CCC3(NC(=O)C(=O)N(C)C)CC2)cc1` [Example 346], above 0.1 µM. The result for `CC(C)N(C)C(=O)C(=O)NC12CCC(CC1)Cn1c2nc(C(=O)NCc2ccc(F)cc2)c(O)c1=O` [Example 105, N′-(2-((4-Fluorobenzyl)carbamoyl)-3-hydroxy-4-oxo-6,7,8,9-tetrahydro-7,10-ethanopyrimido[1,2-a]azepin-10(4H)-yl)-N-methyl-N-(1-methylethyl)ethanediamide] reads below 0.01 µM; that for `CN(C)C(=O)C(=O)NC12CCC(CC1)Cn1c2nc(C(=O)NCc2ccc(F)cc2-c2ccccc2)c(O)c1=O` [Example 307, Ethanediamide, N′-[2-[[[(5-fluoro/[1,1′-biphenyl]-2-yl)methyl]amino]carbonyl]-6,7,8,9-tetrahydro-3-hydroxy-4-oxo-7,10-ethanopyrimido[1,2-a]azepin-10(4H)-yl]-N,N-dimethyl-], below 0.01 µM; that for `Cn1ccc(C(=O)NC23CCC(CC2)Cn2c3nc(C(=O)NCc3ccc(F)cc3)c(O)c2=O)n1` [Example 245, 7,10-Ethanopyrimido[1,2-a]azepine-2-carboxamide, N-[(4-fluorophenyl)methyl]-4,6,7,8,9,10-hexahydro-3-hydroxy-10-[[(1-methyl-1H-pyrazol-3-yl)carbonyl]amino]-4-oxo-], below 0.01 µM.

Consider `CN(C)C(=O)C(=O)NC12CCC(CCn3c1nc(C(=O)NCc1ccc(F)c(Cl)c1)c(O)c3=O)C2` (stereo not drawn) [Example 213, Ethanediamide, N′-[2-[[[(3-chloro-4-fluorophenyl)methyl]amino]carbonyl]-7,8,9,10-tetrahydro-3-hydroxy-4-oxo-8,11-methano-4H-pyrimido[1,2-a]azocin-11(6H)-yl]-N,N-dimethyl-], for which the IC50 is below 0.01 µM.

For `COCCN(C)C(=O)C(=O)N(C)C12CCC(CC1)Cn1c2nc(C(=O)NCc2ccc(F)cc2)c(O)c1=O` [Example 167, N-(2-((4-Fluorobenzyl)carbamoyl)-3-hydroxy-4-oxo-6,7,8,9-tetrahydro-7,10-ethanopyrimido[1,2-a]azepin-10(4H)-yl)-N′-(2-methoxyethyl)-N,N′-dimethylethanediamide], the IC50 is below 0.01 µM. Then `CN(CC(F)(F)F)C(=O)C(=O)NC12CCC(CC1)Cn1c2nc(C(=O)NCc2ccc(F)cc2)c(O)c1=O` [Example 50, N′-(2-((4-Fluorobenzyl)carbamoyl)-3-hydroxy-4-oxo-6,7,8,9-tetrahydro-7,10-ethanopyrimido[1,2-a]azepin-10(4H)-yl)-N-methyl-N-(2,2,2-trifluoroethyl)ethanediamide], with below 0.01 µM. The result for `CO[C@H]1C[C@@H](C(=O)NC23CCC(CC2)Cn2c3nc(C(=O)NCc3ccc(F)cc3)c(O)c2=O)N(C(C)=O)C1` [Example 271, 7,10-Ethanopyrimido[1,2-a]azepine-2-carboxamide, 10-[[[(2S,4S)-1-acetyl-4-methoxy-2-pyrrolidinyl]carbonyl]amino]-N-[(4-fluorophenyl)methyl]-4,6,7,8,9,10-hexahydro-3-hydroxy-4-oxo-] reads below 0.01 µM; that for `CC(=O)Nc1ccc(C(=O)NC23CCC(CC2)Cn2c3nc(C(=O)NCc3ccc(F)cc3)c(O)c2=O)cn1` [Example 320, 7,10-Ethanopyrimido[1,2-a]azepine-2-carboxamide, 10-[[[6-(acetylamino)-3-pyridinyl]carbonyl]amino]-N-[(4-fluorophenyl)methyl]-4,6,7,8,9,10-hexahydro-3-hydroxy-4-oxo-], below 0.01 µM. The result for `Cc1cnc(CNC(=O)c2nc3n(c(=O)c2O)CC2CCC3(NC(=O)C(=O)N(C)C)CC2)cn1` [Example 389] reads 0.01 to 0.1 µM; that for `CN(C)C(=O)C(=O)NC12CCC(CC1)Cn1c2nc(C(=O)NCc2cccnc2)c(O)c1=O` [Example 364], 0.01 to 0.1 µM; that for `Cc1cc(CNC(=O)c2nc3n(c(=O)c2O)CCC2CCC3(NC(=O)C(=O)N(C)C)C2)ccc1F` (stereo not drawn) [Example 212, Ethanediamide, N′-[2-[[[(4-fluoro-3-methylphenyl)methyl]amino]carbonyl]-7,8,9,10-tetrahydro-3-hydroxy-4-oxo-8,11-methano-4H-pyrimido[1,2-a]azocin-11(6H)-yl]-N,N-dimethyl-], below 0.01 µM.

Consider `Cc1ncnn1-c1cc(F)ccc1CNC(=O)c1nc2n(c(=O)c1O)CC1CCC2(NS(C)(=O)=O)CC1` [Example 39, N-(4-Fluoro-2-(5-methyl-1H-1,2,4-triazol-1-yl)benzyl)-3-hydroxy-10-((methylsulfonyl)amino)-4-oxo-4,6,7,8,9,10-hexahydro-7,10-ethanopyrimido[1,2-a]azepine-2-carboxamide], for which the IC50 was below 0.01 µM. The result for `CN(C)C(=O)C(=O)NC12CCC(CC1)Cn1c2nc(C(=O)NCCNc2ccccc2)c(O)c1=O` [Example 342] reads 0.01 to 0.1 µM.

Consider `Cc1cc(CNC(=O)c2nc3n(c(=O)c2O)CC2CCC3(N(C)C(=O)c3cccnc3)CC2)ccc1F` [Example 319, 7,10-Ethanopyrimido[1,2-a]azepine-2-carboxamide, N-[(4-fluoro-3-methylphenyl)methyl]-4,6,7,8,9,10-hexahydro-3-hydroxy-10-[methyl(3-pyridinylcarbonyl)amino]-4-oxo-], for which the IC50 was below 0.01 µM.

For `O=C(NC12CCC(CCn3c1nc(C(=O)NCc1ccc(F)cc1)c(O)c3=O)C2)C(=O)N1CC[C@@H](F)C1` (stereo partly drawn) [Example 208, 8,11-Methano-4H-pyrimido[1,2-a]azocine-2-carboxamide, N-[(4-fluorophenyl)methyl]-11-[[2-[(3R)-3-fluoro-1-pyrrolidinyl]-1,2-dioxoethyl]amino]-6,7,8,9,10,11-hexahydro-3-hydroxy-4-oxo-], the IC50 is below 0.01 µM. Then `Cc1cc(CNC(=O)c2nc3n(c(=O)c2O)CC2CCC3(N(C)C(=O)C(=O)N(C)CC3CCCO3)CC2)ccc1F` (stereo not drawn) [Example 166, N-(2-((4-Fluoro-3-methylbenzyl)carbamoyl)-3-hydroxy-4-oxo-6,7,8,9-tetrahydro-7,10-ethanopyrimido[1,2-a]azepin-10(4H)-yl)-N,N′-dimethyl-N′-(tetrahydro-2-furanylmethyl)ethanediamide], with below 0.01 µM; and `CS(=O)(=O)N1CCN(C(=O)C(=O)NC23CCC(CC2)Cn2c3nc(C(=O)NCc3ccc(F)cc3)c(O)c2=O)CC1` [Example 76, N-(4-Fluorobenzyl)-3-hydroxy-10-(((4-(methylsulfonyl)-1-piperazinyl)(oxo)acetyl)amino)-4-oxo-4,6,7,8,9,10-hexahydro-7,10-ethanopyrimido[1,2-a]azepine-2-carboxamide], with below 0.01 µM. Then `CN(C)C(=O)C(=O)NC12CCC(CC1)Cn1c2nc(C(=O)NCc2ccc3nccn3c2)c(O)c1=O` [Example 244, Ethanediamide, N,N-dimethyl-N′-[6,7,8,9-tetrahydro-3-hydroxy-2-[[(imidazo[1,2-a]pyridin-6-ylmethyl)amino]carbonyl]-4-oxo-7,10-ethanopyrimido[1,2-a]azepin-10(4H)-yl]-], with 0.01 to 0.1 µM; and `O=C1CC[C@@H](C(=O)NC23CCC(CC2)Cn2c3nc(C(=O)NCc3ccc(F)cc3)c(O)c2=O)N1` [Example 46, N-(4-Fluorobenzyl)-3-hydroxy-4-oxo-10-((5-oxoprolyl)amino)-4,6,7,8,9,10-hexahydro-7,10-ethanopyrimido[1,2-a]azepine-2-carboxamide], with below 0.01 µM; and `CN(C)C(=O)C(=O)NC12CCC(CC1)Cn1c2nc(C(=O)NCCCc2ccccc2)c(O)c1=O` [Example 349], with below 0.01 µM. Take `CS(=O)(=O)N1CC[C@H]1C(=O)NC12CCC(CC1)Cn1c2nc(C(=O)NCc2ccc(F)cc2)c(O)c1=O` [Example 268, 7,10-Ethanopyrimido[1,2-a]azepine-2-carboxamide, N-[(4-fluorophenyl)methyl]-4,6,7,8,9,10-hexahydro-3-hydroxy-10-[[[(2S)-1-(methylsulfonyl)-2-azetidinyl]carbonyl]amino]-4-oxo-]: the IC50 is below 0.01 µM. Then `O=C(NC(=S)NC12CCC(CC1)Cn1c2nc(C(=O)NCc2ccc(F)cc2)c(O)c1=O)c1ccccc1` [Example 332, 7,10-Ethanopyrimido[1,2-a]azepine-2-carboxamide, 10-[[(benzoylamino)thioxomethyl]amino]-N-[(4-fluorophenyl)methyl]-4,6,7,8,9,10-hexahydro-3-hydroxy-4-oxo-], with 0.01 to 0.1 µM.

In the case of `CN(C)CC(=O)NC12CCC(CC1)Cn1c2nc(C(=O)NCc2ccc(F)cc2)c(O)c1=O` [Example 29, 10-((N,N-Dimethylglycyl)amino)-N-(4-fluorobenzyl)-3-hydroxy-4-oxo-4,6,7,8,9,10-hexahydro-7,10-ethanopyrimido[1,2-a]azepine-2-carboxamide], the IC50 was 0.01 to 0.1 µM.
